Test results from publication PMC6521145 (Viruses, 2019).
Where two headings read alike, the source gives them in different places.

Assays:
ZIKV (H/PAN and PRV) = test: Plaque assay, ZIKV titer from infected Vero cells; type: cell-based, Zika virus; conditions: for rescue of ZIKV replication during MTX treatment: 5 µM MTX with GAT medium or 0.67 mM glycine, 37.5 µM adenosine, 41.3 µM thymidine, 48 h; for rescue of ZIKV replication from MTX treatment: 50 µM co-treatment with 5 µM MTX, H/PAN and PRV MOI 0.2, Vero cells; for rescue of ZIKV replication from MTX treatment / decrease in ZIKV titer: 48 h PI
Vero cells [1] = conditions: for rescue of cell viability during MTX treatment (CTG): 5 µM MTX with GAT medium or 0.67 mM glycine, 37.5 µM adenosine, 41.3 µM thymidine
Vero cells [2] = conditions: for rescue of cell viability during MTX treatment (CTF): 5 µM MTX with 0.67 mM glycine, 37.5 µM adenosine or 41.3 µM thymidine, uninfected Vero cells
ZIKV (H/PAN) [3] = test: Plaque assay, ZIKV titer from infected hNSCs; type: cell-based, Zika virus
hNSCs = conditions: hNSCs
[4] = human, hNSCs
ZIKV (H/PAN) [5] = test: Immunofluorescence imaging of ZIKV envelope protein in infected hNSCs; conditions: Zika virus, read-out: IC50 (µM) Values of MTX, Immunofluorescence
ZIKV (H/PAN) [6] = test: Immunofluorescence imaging of ZIKV envelope protein in infected Vero cells
[7] = test system: human brain microvascular endothelial cells; conditions: read-out: host cytotoxicity (CC50); cited from earlier work
ZIKV = conditions: human brain microvascular endothelial cells; read-out: inhibitory concentration 50 (IC50) against ZIKV; cited from earlier work
[8] = human
[9] = GAT medium or 37.5 µM adenosine without MTX

Question: Which results are given for `Cc1cn([C@H]2C[C@H](O)[C@@H](CO)O2)c(=O)[nH]c1=O` [thymidine]?
Answer: rescue of ZIKV replication during MTX treatment (ZIKV (H/PAN and PRV); H/PAN MOI 0.2, Vero cells): could not rescue; rescue of cell viability during MTX treatment (CTG) (Vero cells [1]; uninfected Vero cells): could not rescue; rescue of cell viability during MTX treatment (CTF) (Vero cells [2]): could not rescue

Question: For `Nc1nc(=O)c2nc(CNc3ccc(C(=O)N[C@@H](CCC(=O)O)C(=O)O)cc3)cnc2[nH]1` [folic acid], which “rescue of ZIKV replication from MTX treatment” value (ZIKV (H/PAN and PRV)) is on record?
Answer: Its value is “could not rescue”.

Question: For `Nc1ncnc2c1ncn2[C@@H]1O[C@H](CO)[C@@H](O)[C@H]1O` [adenosine], which “rescue of ZIKV replication during MTX treatment” value (ZIKV (H/PAN and PRV); H/PAN MOI 0.2, Vero cells) is on record?
Answer: Its value is “rescued”.

Question: And the “rescue of cell viability during MTX treatment (CTG)” value (Vero cells [1]; uninfected Vero cells)?
Answer: Its value is “could”.

Question: What about the “viability of Vero cells, substance alone (CTG)” value (Vero cells [1]; [9]) of the same compound?
Answer: Its value is “did not alter”.

Question: And the “rescue of cell viability during MTX treatment (CTF)” value (Vero cells [2])?
Answer: The value was “could”.

Question: What about the “viability of Vero cells, substance alone (CTF)” value (Vero cells [2]; [9]) of the same compound?
Answer: Its value is “did not alter”.

Question: For `NCC(=O)O` [glycine], which “rescue of cell viability during MTX treatment (CTG)” value (Vero cells [1]; uninfected Vero cells) is on record?
Answer: Its value is “could not rescue”.

Question: And the “rescue of cell viability during MTX treatment (CTF)” value (Vero cells [2])?
Answer: Its value is “could not rescue”.

Question: Which “rescue of ZIKV replication during MTX treatment” value (ZIKV (H/PAN) [3]; 50 µM with 5 µM MTX, H/PAN MOI 0.1, hNSCs) does the source give for `Nc1nc2c(c(=O)[nH]1)N(C=O)C(CNc1ccc(C(=O)N[C@@H](CCC(=O)O)C(=O)O)cc1)CN2` (stereo partly shown) [leucovorin] here?
Answer: The value was “same rescue effect”.

Question: What about the “rescue of ZIKV replication from MTX treatment” value (ZIKV (H/PAN and PRV)) of the same compound?
Answer: Its value is “rescued”.

Question: And the “cell viability, substance alone (CTG)” value (Vero cells [1]; 50 µM leucovorin vs water vehicle, Vero cells)?
Answer: Its value is “No significant difference”.

Question: What about the “rescue of cell viability after MTX treatment (CTG)” value (Vero cells [1]; 50 µM with 5 µM MTX, uninfected Vero cells) of the same compound?
Answer: Its value is “could rescue”.

Question: And the “cell viability, substance alone (CTG)” value (hNSCs; 50 µM leucovorin vs water vehicle)?
Answer: The value was “No significant difference”.

Question: What about the “rescue of cell viability during MTX treatment (CTG)” value (hNSCs; 50 µM with 5 µM MTX) of the same compound?
Answer: The value was “same rescue effect”.

Question: For `CN(Cc1cnc2nc(N)nc(N)c2n1)c1ccc(C(=O)N[C@@H](CCC(=O)O)C(=O)O)cc1` [MTX, methotrexate], which CC50 [4] is on record?
Answer: The CC50 was greater than 100 µM.

Question: What about the IC50 (ZIKV (H/PAN) [5]) of the same compound?
Answer: Its IC50 is 0.334 µM.

Question: And the “ZIKV replication in infected hNSCs” value (ZIKV (H/PAN) [3]; 5 μM MTX, hNSCs)?
Answer: Its value is “reduced ZIKV replication”.

Question: And the “decrease in ZIKV titer” value (ZIKV (H/PAN and PRV); 5 µM MTX, H/PAN and PRV both MOI 0.2, Vero cells)?
Answer: The value was “approximately 10 fold”.

Question: What about the “ZIKV replication at 96 h PI compared to DMSO control” value (ZIKV (H/PAN and PRV); 5 µM MTX, Vero cells, 96 h PI) of the same compound?
Answer: Its value is “resumed”.

Question: And the “decrease in ZIKV titer” value (ZIKV (H/PAN and PRV); 6.25 µM MTX, H/PAN MOI 0.2, Vero cells)?
Answer: The value was “approximately 10 fold”.

Question: What about the “ZIKV envelope protein synthesis” value (ZIKV (H/PAN) [6]; 5 µM MTX, H/PAN MOI 0.2, Vero cells, 48 h PI) of the same compound?
Answer: The value was “reduced”.

Question: What about the IC50 (ZIKV (H/PAN) [6]; Zika virus, Vero, read-out: IC50 (µM) Values of MTX, Immunofluorescence) of the same compound?
Answer: The IC50 was 0.245 µM.

Question: And the CC50 [7]?
Answer: Its CC50 is greater than 10 µM.

Question: And the IC50 (ZIKV)?
Answer: The IC50 was 0.28 µM.

Question: What about the CC50 [8] of the same compound?
Answer: The CC50 was 0.0163 µM.
